Values quoted from earlier work, collected in patent US20070225544A1, “APPARATUSES AND TECHNIQUES FOR BIOACTIVE DRUG DELIVERY IN THE PROSTATE GLAND” (priority 2006, published 2007).

Columns and labels:
[1] = tested on: benign prostatic hypertrophy (BPH); conditions: in vivo

CC(=O)OCC(=O)[C@@]1(O)CC[C@H]2[C@@H]3CCC4=CC(=O)CC[C@]4(C)[C@H]3[C@@H](O)C[C@@]21C [Hydrocortisone acetate]
Duration (relative duration of action of injectable corticosteroid agent): Short
Potency (relative potency of injectable corticosteroid agent): Low

botulinum-toxin
decrease in urinary symptoms [1]: 30%
effective for up to ... in managing BPH [1]: up to 1 year
